Activity calls are given as the source filed them.
How the values were obtained:
[1] = molecular target: T1, Short transient receptor potential channel 4 (Mus musculus, UniProt Q9QUQ5); assay: mouse TRPC4 channel activators, dose response, cell-based, HEK293 TRPC4/mu-opioid, Fluo-4 calcium (AID 434937); format: functional
T1 sequence (Q9QUQ5 whole entry): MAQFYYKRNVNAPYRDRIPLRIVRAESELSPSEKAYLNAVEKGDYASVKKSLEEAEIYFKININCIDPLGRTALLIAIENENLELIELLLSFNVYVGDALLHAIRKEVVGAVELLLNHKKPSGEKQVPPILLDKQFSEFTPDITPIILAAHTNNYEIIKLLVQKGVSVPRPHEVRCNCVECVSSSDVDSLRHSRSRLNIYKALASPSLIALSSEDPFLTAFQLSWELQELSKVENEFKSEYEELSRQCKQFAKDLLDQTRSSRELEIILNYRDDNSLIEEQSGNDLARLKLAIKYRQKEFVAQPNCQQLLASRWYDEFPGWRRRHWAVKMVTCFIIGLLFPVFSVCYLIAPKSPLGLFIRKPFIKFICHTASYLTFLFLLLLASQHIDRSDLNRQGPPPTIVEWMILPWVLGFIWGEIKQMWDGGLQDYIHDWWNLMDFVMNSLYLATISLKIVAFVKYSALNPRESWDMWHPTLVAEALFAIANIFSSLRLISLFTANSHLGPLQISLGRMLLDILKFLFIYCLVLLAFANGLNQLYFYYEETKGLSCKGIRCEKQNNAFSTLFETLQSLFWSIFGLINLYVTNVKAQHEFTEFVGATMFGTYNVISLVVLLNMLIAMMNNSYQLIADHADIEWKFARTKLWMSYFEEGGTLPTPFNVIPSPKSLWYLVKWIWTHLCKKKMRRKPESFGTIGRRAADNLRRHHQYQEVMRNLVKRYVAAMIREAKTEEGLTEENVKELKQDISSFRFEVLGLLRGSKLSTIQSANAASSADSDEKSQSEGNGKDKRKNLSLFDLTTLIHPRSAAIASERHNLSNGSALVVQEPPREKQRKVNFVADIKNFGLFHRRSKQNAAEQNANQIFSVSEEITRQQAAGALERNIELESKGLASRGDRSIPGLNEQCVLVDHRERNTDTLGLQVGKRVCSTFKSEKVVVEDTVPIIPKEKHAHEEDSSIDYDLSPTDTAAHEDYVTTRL

[2] = molecular target: 5-hydroxytryptamine receptor 5A (Homo sapiens, UniProt P47898); assay: Counterscreen for agonists of OPRM1-OPRD1 heterodimerization: luminescence-based cell-based high throughput dose response assay to identify agonists of 5-hydroxytryptamine (serotonin) 5A receptor (HTR5A). [Related pubchem assays (depositor defined):AID504326, AID504355, AID504692, AID504904, AID504905]; format: functional
[3] = molecular target: Delta-type opioid receptor (Homo sapiens, UniProt P41143); assay: Counterscreen for agonists of heterodimerization of the mu 1 (OPRM1) and delta 1 (OPRD1) opioid receptors: Luminescence-based cell-based high throughput dose response assay to identify agonists of OPRD1 homodimerization. [Related pubchem assays (depositor defined):AID504326, AID504355, AID504692, AID504904, AID504905]; format: functional
Mu-type opioid receptor = Mu-type opioid receptor (Homo sapiens, UniProt P35372); assay: Counterscreen for agonists of heterodimerization of the mu 1 (OPRM1) and delta 1 (OPRD1) opioid receptors: Luminescence-based cell-based high throughput dose response assay to identify agonists of OPRM1 homodimerization.; format: functional;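 note: U2OS cells expressing OPRM1 and beta-arrestin as split beta-galactosidase partners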
[4] = inhibitors of intracellular T. cruzi replication, confirmation, NIH3T3 host cells, beta-gal luminescence (AID 2044); format: functional, cell-based;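 note: intracellular parasites grown in NIH/3T3 mouse fibroblasts as host cells; luminescent beta-galactosidase reporter signal from transgenic T. cruzi replicating inside host cells; inhibitors lower the luminescence signal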
INS1 = assay: beta cell apoptosis inhibitors, cytokine rescue, dose response, luminescence, retest (AID 449756); format: functional, cell-based; conditions: Rattus norvegicus;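 note: cell death triggered by IL-1 beta plus TNF-alpha plus IFN-gamma mixture; protective hits raise ATP signal compared with cytokine alone wells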
[5] = molecular target: C-C chemokine receptor type 6 (Homo sapiens, UniProt P51684); assay: CCR6 receptor antagonists, dose response, cell-based, luminescent beta-arrestin readout (AID 504728); format: functional
[6] = non-specific cell cytotoxicity, dose response, cytotoxicity control for PAX8 inhibitor project, plate reader, dry powder samples (AID 743021); format: functional, cell-based
[7] = molecular target: T2, Microphthalmia-associated transcription factor (Homo sapiens, UniProt O75030); assay: TRPM1 promoter luciferase signal decrease, dose response, MITF inhibitor project, cell-based, SK-MEL-5, cherry-picked, set 3 (AID 493073); format: functional
T2 sequence (O75030 whole entry): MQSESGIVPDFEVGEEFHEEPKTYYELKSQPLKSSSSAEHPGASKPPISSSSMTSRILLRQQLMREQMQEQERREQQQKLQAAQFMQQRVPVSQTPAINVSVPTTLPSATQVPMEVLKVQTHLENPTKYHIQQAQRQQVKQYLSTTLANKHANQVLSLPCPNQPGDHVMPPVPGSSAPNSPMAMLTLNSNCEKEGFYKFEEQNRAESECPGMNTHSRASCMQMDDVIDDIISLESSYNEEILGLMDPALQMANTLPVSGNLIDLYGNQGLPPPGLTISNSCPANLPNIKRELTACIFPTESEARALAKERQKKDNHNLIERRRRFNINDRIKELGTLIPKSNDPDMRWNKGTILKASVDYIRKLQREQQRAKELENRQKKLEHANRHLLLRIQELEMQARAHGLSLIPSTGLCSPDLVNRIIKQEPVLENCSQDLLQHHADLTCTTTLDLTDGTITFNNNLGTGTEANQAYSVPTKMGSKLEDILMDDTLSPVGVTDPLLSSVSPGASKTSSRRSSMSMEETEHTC

Beta-galactosidase = Beta-galactosidase (Escherichia coli, UniProt Q8VNN2); assay: beta-galactosidase enzyme inhibitors and activators, dose response, artefact control for CCR6 antagonist project, biochemical, E. coli enzyme, set 3 (AID 504712); format: functional
Paired box protein Pax-8 = Paired box protein Pax-8 (Homo sapiens, UniProt Q06710); assay: inhibitors of PAX8-driven TPO luciferase reporter, dose response, RMG-I cells, cherry-pick (AID 687027); format: functional, cell-based;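 note: luciferase reporter driven by Pax8 target thyroperoxidase promoter measured by SteadyGlo luminescence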
[8] = Luminescence Cell-Based Dose Retest to Confirm Inhibitors of Cancer Stem Cells. [Related pubchem assays (depositor defined):AID2717, AID2721]; format: functional; conditions: Homo sapiens
[9] = molecular target: T3, Heat shock factor protein 1 (Mus musculus, UniProt P38532); assay: inhibition of MG132-induced HSE-luciferase signal, confirmation, cell-based, NIH3T3, luminescence, dose retest (AID 2382); format: functional;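 note: NIH3T3 fibroblasts with HSF1-driven luciferase reporter stressed by proteasome inhibitor MG132; luminescence from HSF1-driven luciferase expression after 8 hours of MG132 stress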
T3 sequence (P38532 whole entry): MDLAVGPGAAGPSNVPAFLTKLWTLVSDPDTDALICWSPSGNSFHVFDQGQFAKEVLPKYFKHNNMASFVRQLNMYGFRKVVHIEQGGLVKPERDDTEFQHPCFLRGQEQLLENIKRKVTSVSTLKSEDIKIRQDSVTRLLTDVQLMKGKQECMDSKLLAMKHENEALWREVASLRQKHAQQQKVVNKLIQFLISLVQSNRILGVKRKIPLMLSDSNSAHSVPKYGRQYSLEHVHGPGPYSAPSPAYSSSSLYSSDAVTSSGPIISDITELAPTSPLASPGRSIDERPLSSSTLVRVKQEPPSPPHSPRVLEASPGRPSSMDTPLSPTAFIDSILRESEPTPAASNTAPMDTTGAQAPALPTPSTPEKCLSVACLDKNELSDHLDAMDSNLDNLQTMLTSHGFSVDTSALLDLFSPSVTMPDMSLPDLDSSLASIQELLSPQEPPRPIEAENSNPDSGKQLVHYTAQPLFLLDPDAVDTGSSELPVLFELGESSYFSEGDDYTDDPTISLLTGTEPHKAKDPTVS

[10] = cytotoxicity toward NIH3T3 fibroblasts, dose response, counter-screen, cell-based, ATP luminescence, mouse fibroblasts (AID 2010); format: functional;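 note: cells exposed to compound for about 90 hours before reading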
A-375 = assay: A375 melanoma cell viability reduction, dose response, counter-screen for MITF modulator project, cherry-pick samples, set 2 (AID 540335); format: functional, cell-based; conditions: Homo sapiens
[11] = Shn3 3'UTR reporter inhibitors, dose response, cell-based, Clone20 osteoblasts, firefly luciferase, cherry-picked (AID 624132); format: functional;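 note: firefly luciferase luminescence from reporter carrying the Shn3 3'UTR in osteoblasts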
[12] = HepG2 cell cytotoxicity, dose response, cytotoxicity control for Shn3 inhibitor project, CellTiter-Glo, cherry-picked (AID 624134); format: functional, cell-based
cells = format: functional
[13] = molecular target: T4, High affinity choline transporter 1 (Homo sapiens, UniProt Q9GZV3); assay: CHT inhibitors, dose response, cell-based, 5-point CRC, membrane potential dye (AID 504840); format: functional
T4 sequence (Q9GZV3 whole entry): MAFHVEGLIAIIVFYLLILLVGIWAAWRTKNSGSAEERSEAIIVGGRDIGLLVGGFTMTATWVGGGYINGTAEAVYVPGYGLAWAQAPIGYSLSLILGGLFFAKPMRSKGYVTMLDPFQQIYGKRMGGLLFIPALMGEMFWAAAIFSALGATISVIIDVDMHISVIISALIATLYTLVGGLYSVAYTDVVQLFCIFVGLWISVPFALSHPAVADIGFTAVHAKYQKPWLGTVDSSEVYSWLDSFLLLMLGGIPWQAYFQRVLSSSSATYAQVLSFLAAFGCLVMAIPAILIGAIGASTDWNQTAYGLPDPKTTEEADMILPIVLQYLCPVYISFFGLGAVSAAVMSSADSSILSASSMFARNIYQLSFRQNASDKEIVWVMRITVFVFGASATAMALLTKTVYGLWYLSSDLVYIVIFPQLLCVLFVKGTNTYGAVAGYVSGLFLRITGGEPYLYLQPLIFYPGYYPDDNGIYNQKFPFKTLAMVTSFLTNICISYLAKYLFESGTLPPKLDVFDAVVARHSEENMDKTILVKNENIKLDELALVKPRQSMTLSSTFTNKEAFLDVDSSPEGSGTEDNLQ

[14] = control 3'UTR Renilla luciferase suppression, dose response, counter-screen for Shn3 inhibitor project, cell-based, Clone20-Shn3RL, cherry-picked (AID 624133); format: functional
[15] = Vero E6 cell cytotoxicity, dose response, cytotoxicity control for non-replicating M. tuberculosis project, secondary assay (AID 492998); format: functional, VeroE6; conditions: Vero C1008
[16] = microbe, parasite or virus in culture; format: functional; conditions: Mycobacterium tuberculosis
[17] = HepG2 cell cytotoxicity, dose response, cytotoxicity control for non-replicating M. tuberculosis project (AID 489018); format: functional; conditions: Mycobacterium tuberculosis
[18] = THP-1 cell cytotoxicity, dose response, cytotoxicity control for non-replicating M. tuberculosis project (AID 489025); format: functional

Sequence of 5-hydroxytryptamine receptor 5A (P47898 whole entry): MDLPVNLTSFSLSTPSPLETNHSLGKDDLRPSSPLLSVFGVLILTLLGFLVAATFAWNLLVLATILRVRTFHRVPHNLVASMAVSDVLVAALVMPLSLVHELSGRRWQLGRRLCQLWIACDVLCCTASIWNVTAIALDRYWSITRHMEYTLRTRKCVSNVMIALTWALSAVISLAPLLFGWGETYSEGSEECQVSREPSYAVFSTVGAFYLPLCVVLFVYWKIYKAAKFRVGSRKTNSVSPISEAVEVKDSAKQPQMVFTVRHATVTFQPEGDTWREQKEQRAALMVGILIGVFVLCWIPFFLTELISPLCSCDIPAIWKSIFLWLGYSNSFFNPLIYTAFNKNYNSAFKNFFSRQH
Sequence of Mu-type opioid receptor (P35372 whole entry): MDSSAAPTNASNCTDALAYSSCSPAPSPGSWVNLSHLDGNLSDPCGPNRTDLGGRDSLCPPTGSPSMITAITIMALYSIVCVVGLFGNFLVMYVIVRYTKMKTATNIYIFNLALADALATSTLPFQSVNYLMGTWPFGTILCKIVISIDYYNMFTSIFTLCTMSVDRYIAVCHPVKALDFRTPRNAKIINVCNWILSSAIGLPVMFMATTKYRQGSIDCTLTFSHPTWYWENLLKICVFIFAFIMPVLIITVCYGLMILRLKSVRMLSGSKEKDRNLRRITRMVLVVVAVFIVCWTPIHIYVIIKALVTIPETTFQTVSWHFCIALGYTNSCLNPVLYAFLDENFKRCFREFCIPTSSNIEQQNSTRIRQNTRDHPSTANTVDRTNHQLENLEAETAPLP
Sequence of Delta-type opioid receptor (P41143 whole entry): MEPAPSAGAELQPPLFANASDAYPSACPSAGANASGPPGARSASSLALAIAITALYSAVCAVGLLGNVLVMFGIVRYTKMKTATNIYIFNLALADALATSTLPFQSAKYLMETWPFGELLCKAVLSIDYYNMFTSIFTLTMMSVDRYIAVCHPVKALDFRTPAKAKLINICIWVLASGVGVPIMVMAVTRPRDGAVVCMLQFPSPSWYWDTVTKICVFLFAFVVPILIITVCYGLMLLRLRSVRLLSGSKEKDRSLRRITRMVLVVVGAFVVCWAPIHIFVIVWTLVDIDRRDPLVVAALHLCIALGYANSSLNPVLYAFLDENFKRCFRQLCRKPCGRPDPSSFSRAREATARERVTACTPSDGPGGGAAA
Sequence of Beta-galactosidase (Q8VNN2 whole entry): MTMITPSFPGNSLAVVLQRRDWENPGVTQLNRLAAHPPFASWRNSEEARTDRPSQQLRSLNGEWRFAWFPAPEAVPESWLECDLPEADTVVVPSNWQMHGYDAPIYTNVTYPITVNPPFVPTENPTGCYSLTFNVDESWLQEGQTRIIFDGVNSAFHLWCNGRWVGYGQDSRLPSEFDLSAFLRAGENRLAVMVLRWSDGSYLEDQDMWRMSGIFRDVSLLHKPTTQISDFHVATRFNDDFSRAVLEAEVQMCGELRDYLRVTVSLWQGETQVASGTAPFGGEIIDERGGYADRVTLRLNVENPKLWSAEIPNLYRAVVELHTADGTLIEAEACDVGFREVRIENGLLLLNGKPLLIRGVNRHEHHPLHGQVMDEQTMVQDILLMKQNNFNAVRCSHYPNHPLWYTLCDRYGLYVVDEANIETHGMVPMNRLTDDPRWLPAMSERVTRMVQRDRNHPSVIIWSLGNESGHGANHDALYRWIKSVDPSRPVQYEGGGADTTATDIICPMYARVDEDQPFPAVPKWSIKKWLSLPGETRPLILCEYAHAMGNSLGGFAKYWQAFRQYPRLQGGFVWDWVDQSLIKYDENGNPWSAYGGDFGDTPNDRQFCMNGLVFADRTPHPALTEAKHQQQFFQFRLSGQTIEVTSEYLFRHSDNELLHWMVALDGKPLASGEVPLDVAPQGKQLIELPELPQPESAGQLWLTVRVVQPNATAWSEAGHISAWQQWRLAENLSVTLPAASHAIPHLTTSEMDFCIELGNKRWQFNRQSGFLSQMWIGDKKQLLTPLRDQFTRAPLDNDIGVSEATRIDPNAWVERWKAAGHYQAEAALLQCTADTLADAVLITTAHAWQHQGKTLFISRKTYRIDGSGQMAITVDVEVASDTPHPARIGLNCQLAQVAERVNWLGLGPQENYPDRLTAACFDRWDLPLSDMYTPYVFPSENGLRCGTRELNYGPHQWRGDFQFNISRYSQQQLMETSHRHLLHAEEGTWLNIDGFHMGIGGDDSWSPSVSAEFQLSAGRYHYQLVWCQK
Sequence of C-C chemokine receptor type 6 (P51684 whole entry): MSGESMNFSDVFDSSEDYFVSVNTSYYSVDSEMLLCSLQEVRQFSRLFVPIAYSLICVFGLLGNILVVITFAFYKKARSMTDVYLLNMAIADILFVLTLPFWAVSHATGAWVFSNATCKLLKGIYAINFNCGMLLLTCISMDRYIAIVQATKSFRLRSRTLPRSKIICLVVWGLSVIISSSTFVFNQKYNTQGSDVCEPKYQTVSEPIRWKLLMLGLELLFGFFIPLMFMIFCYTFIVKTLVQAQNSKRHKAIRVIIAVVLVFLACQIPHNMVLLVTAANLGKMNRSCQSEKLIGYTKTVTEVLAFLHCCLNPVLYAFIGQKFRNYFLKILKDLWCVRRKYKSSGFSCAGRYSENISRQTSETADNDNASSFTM
Sequence of Paired box protein Pax-8 (Q06710 whole entry): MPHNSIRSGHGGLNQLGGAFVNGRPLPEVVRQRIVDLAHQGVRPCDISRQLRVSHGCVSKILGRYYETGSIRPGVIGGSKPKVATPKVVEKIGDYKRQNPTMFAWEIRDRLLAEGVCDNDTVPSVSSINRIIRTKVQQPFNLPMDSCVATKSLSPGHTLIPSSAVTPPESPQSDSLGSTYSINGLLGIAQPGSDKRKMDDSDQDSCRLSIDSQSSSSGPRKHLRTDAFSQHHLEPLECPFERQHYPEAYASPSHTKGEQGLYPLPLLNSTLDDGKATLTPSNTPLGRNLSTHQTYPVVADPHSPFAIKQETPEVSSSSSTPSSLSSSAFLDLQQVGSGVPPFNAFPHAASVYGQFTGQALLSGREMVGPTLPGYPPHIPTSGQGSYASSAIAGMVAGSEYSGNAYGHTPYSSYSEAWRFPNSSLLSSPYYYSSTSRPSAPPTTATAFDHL

Structure (SMILES): COc1ccc(C(CNC(=O)c2ccc(S(=O)(=O)N(C)C)cc2)N(C)C)cc1 (stereo unspecified)
- EC50 [1]: 1.5 µM (active)
- EC50 [2]: > 92.5 µM (inactive)
- EC50 [3]: 85.6 µM (inactive)
- EC50 (Mu-type opioid receptor): > 92.5 µM (inactive)

Structure (SMILES): Cc1ccc(C(=O)N/C(=C\c2ccc(-c3ccc(Br)cc3)o2)C(=O)NCCCN(C)C)cc1
- EC50 [4]: 1.56 µM (active)
- AC50 (INS1): 7.33 µM (active)
- IC50 [5]: 24.6 µM (inactive)
- AC50 [6]: 61.2 µM (active)
- AC50 [7]: 6.84 µM (active)
- IC50 (Beta-galactosidase): > 66.6 µM (inactive)
- AC50 (Paired box protein Pax-8): 17.4 µM (active)
- AC50 [8]: 2.81 µM (active)
- EC50 [9]: 24.1 µM (active)
- EC50 [10]: > 30 µM (not active)
- AC50 (A-375): 17.7 µM (active)

Structure (SMILES): N=c1n(Cc2ccc(Cl)cc2)c2ccccc2n1CC(O)COc1ccccc1 (stereo unspecified)
- AC50 [11]: 2.34 µM (active)
- AC50 [12]: 14.2 µM (active)
- IC50 (cells): 14.1 µM (active)
- AC50 [7]: 9.25 µM (active)
- IC50 [13]: 15 µM (active)
- AC50 [14]: 3.61 µM (active)
- CC50 [15]: 11.8 µM (active)
- CC50 [16]: 11.6 µM (active)
- CC50 [17]: 8.02 µM (active)
- CC50 [18]: 11.8 µM (active)
- AC50 (A-375): 13.9 µM (active)
